Results as given in US20200190062A1, “HETEROCYCLIC COMPOUND AND PHARMACEUTICAL COMPOSITION COMPRISING SAME” (BEYONDBIO INC., priority 2015, published 2020).
Structures can show the parent of a compound that is named as a salt.

Assays:
Tau protein = assay: Inhibition of Tau phosphorylation (Western blot, pSer202) in SH-SY5Y cells; type: cell-based; conditions: 4 hrs
Description: SH-SY5Y cells expressing Tau protein were cultured in DMEM containing 10% FBS. 2.5×10^6 cells were placed in a 6-well plate and incubated at 5% CO2 and 37° C. for 16 hrs. The compounds obtained in the above Examples serially diluted ⅓ from 3 uM to 0.5 nM or the compounds in a concentration of 0.3, 0.1, 0.03, 0.01, 0.003 uM were treated for 4 hrs in DMEM containing 5% FBS. After 4 hrs, the culture solution was removed, washed with PBS, and cells were lysed by adding 100 ul of lysis buffer. The lysis buffer consisted of 50 mM Tris-HCl (pH 7.5), 150 mM NaCl, 5 mM EDT, 1 mM EGTA, 50 mM NaF, 1 mM PMSF, 1 mM Na3VO4, 2.5 mM DTT, 1% Triton X-100, and Protease inhibitor (Pierce). The lysed cells were centrifuged at 10,000 rpm and 4° C. for 10 min and the proteins in the supernatant were quantified. 25 ug of the proteins were electrophoresed on a SDS-PAGE gel and transferred to PVDF (Amersharm) membrane. The PVDF membrane was immersed in T-PBS containing 10% skim milk and shaken for 1 hr at room temperature. The primary antibody, Phosph-Tau[pSer202] (Abcam), diluted 1:1500 in T-PBS solution containing 5% skim milk was reacted with the membrane at room temperature for 2 hrs. The membrane was washed with T-PBS. The secondary antibody, Anti-rabbit IgG HRP, diluted 1:5000 was added to the membrane, reacted at room temperature for 1 hr, and washed.

CDK6/cyclinD3 = target: T1, CDK6/cyclinD3 (Homo sapiens, UniProt Q00534); assay: Inhibition of CDK enzyme activity (ADP-Glo kinase assay); type: biochemical; conditions: 10 uM ATP, histone H1 substrate; read-out: IC50 CDK6/cyclinD
T1 construct: purchased Merck Millipore
T1 sequence (Q00534 whole entry): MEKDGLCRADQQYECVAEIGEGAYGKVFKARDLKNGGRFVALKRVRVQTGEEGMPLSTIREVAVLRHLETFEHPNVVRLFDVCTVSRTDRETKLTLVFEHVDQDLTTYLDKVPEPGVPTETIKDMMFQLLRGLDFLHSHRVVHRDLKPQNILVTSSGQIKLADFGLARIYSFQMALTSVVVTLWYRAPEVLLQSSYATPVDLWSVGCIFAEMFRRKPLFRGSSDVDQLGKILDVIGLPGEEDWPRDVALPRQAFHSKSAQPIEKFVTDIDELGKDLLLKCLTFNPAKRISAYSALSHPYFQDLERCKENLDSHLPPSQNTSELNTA
T1 sequence (P30281 whole entry partner): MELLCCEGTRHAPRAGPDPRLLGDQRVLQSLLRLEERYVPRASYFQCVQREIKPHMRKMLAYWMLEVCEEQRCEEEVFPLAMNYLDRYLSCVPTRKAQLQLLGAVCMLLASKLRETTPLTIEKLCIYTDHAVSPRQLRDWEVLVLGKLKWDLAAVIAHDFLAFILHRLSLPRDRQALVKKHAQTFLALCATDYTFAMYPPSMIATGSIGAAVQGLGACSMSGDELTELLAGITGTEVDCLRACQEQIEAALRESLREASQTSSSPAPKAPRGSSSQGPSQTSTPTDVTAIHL
Outline: (§1)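 Kinase reactions in 50 mM Tris-HCl pH 7.5 with MgCl2, EGTA, EDTA and DTT, at 10 µM ATP. CDK2/cyclinE and CDK5/p25 were used at 10 nM and CDK6/cyclinD3 at 50 nM with 0.125 mg/ml histone H1; CDK4/cyclinD1 was used at 20 nM with 0.125 mg/ml Rb protein. After 60 min at 30 °C, ADP was read by ADP-Glo luminescence and IC50 taken from % inhibition versus no-compound control.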

CDK1/cyclinB = target: T2, CDK1/cyclinB (Homo sapiens, UniProt P06493); assay: as above; type: biochemical; conditions: 10 uM ATP, histone H1 substrate
T2 construct: purchased Merck Millipore
T2 sequence (P06493 whole entry): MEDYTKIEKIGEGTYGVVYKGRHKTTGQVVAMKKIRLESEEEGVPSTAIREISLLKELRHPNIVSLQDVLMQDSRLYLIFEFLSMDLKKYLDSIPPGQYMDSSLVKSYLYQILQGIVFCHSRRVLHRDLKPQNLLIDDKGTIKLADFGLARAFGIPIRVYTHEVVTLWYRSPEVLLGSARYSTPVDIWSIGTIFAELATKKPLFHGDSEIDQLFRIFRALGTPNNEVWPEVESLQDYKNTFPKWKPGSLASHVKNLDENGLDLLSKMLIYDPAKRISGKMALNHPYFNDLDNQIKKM
T2 sequence (P14635 whole entry partner): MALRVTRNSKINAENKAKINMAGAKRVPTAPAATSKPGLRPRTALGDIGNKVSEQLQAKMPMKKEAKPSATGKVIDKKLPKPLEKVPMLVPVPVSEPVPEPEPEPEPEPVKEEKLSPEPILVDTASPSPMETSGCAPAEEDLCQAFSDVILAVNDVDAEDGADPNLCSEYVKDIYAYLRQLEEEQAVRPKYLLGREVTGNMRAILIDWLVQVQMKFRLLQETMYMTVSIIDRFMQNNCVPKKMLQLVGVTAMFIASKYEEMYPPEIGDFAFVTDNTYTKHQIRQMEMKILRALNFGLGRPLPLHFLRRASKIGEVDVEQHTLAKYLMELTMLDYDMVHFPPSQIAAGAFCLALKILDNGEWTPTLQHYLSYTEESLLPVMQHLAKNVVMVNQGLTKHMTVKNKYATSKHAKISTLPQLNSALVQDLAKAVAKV

CDK4/cyclinD1 = target: T3, CDK4/cyclinD1 (Homo sapiens, UniProt P11802); assay: as above; type: biochemical; conditions: 10 uM ATP, Rb protein substrate; read-out: IC50 CDK4/cyclinD
T3 construct: purchased Signalchem (US)
T3 sequence (P11802 whole entry): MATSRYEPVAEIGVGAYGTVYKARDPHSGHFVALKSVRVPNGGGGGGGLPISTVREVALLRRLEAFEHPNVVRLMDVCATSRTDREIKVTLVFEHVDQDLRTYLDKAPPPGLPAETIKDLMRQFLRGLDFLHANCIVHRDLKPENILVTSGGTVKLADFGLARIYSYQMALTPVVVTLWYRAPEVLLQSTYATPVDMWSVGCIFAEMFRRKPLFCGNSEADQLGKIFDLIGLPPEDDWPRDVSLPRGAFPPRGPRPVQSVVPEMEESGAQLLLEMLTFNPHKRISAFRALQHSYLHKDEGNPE
T3 sequence (P24385 whole entry partner): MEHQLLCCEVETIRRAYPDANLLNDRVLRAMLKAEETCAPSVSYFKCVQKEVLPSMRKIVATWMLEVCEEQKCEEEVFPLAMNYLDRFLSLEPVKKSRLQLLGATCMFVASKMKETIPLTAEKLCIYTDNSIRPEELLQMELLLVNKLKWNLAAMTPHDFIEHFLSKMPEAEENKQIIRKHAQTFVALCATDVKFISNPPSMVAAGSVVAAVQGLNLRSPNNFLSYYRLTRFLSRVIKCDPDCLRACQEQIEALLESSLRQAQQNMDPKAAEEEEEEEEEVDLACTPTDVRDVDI
Outline: as §1

CDK2/cyclinE = target: T4, CDK2/cyclinE (Homo sapiens, UniProt P24941); assay: as above; type: biochemical; conditions: 10 uM ATP, histone H1 substrate
T4 construct: purchased Merck Millipore
Outline: as §1

CDK5/p25 = target: T5, CDK5/p25 (Homo sapiens, UniProt Q00535); assay: as above; type: biochemical; conditions: 10 uM ATP, histone H1 substrate
T5 construct: purchased Merck Millipore
T5 sequence (Q00535 whole entry): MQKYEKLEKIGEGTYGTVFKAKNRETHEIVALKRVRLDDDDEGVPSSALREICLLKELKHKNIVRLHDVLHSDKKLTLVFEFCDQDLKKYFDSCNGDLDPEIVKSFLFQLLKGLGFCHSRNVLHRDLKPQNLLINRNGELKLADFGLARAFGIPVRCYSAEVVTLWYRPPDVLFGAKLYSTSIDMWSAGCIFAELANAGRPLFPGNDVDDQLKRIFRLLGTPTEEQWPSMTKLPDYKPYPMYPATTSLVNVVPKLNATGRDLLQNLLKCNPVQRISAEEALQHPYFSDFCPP
T5 sequence (Q15078 99-307 partner limits assumed): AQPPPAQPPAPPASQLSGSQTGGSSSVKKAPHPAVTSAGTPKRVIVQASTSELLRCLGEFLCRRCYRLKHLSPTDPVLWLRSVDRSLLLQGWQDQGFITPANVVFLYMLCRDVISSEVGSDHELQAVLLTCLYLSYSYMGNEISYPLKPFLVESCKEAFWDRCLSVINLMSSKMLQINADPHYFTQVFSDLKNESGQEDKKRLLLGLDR
Outline: as §1

HCT116 = assay: Inhibition of cancer cell proliferation (MTT); type: cell-based, human

| SMILES | IC50 (CDK6/cyclinD3) [nM] | IC50 (CDK1/cyclinB) [nM] | IC50 (CDK4/cyclinD1) [nM] | IC50 (CDK2/cyclinE) [nM] | IC50 (CDK5/p25) [nM] | GI50 (HCT116; 72 hrs) [nM] | GI50 (HCT116; Homo sapiens, HCT-116, 72 h) [nM] | Phosphorylation (%) of Tau (Tau protein; 0.0005 uM) [%] | Phosphorylation (%) of Tau (Tau protein; 0.0014 uM) [%] | Phosphorylation (%) of Tau (Tau protein; 0.0041 uM) [%] | Phosphorylation (%) of Tau (Tau protein; 0.012 uM) [%] | Phosphorylation (%) of Tau (Tau protein; 0.037 uM) [%] | Phosphorylation (%) of Tau (Tau protein; 0.11 uM) [%] | Phosphorylation (%) of Tau (Tau protein; 0.33 uM) [%] | Phosphorylation (%) of Tau (Tau protein; 1 uM) [%] | Phosphorylation (%) of Tau (Tau protein; 3 uM) [%] | Phosphorylation (%) of Tau (Tau protein; 0.003 uM) [%] | Phosphorylation (%) of Tau (Tau protein; 0.01 uM) [%] | Phosphorylation (%) of Tau (Tau protein; 0.03 uM) [%] | Phosphorylation (%) of Tau (Tau protein; 0.1 uM) [%] |
| --- | --- | --- | --- | --- | --- | --- | --- | --- | --- | --- | --- | --- | --- | --- | --- | --- | --- | --- | --- | --- |
| Nc1nccc(-c2nc(-c3ccnc(N)c3F)ccc2O)n1 [Example 8] | 47 | 2.1 | 108 | 2.1 | 0.22 | 10 |  | 40 | 43 | 23 | 0 | 0 | 0 |  |  |  |  |  |  |  |
| Nc1nccc(-c2ccc(O)c(-c3ccnc(N)n3)n2)n1 [Example 1, 2,6-bis(2-aminopyrimidin-4-yl)pyridin-3-ol] | > 200 | 1.5 | 855 | 1.5 | 2.4 | 150 |  |  |  |  | 88 | 92 | 51 | 28 | 30 | 25 |  |  |  |  |
| Nc1cc(-c2ccc(O)c(-c3ccnc(N)n3)n2)ccn1 [Example 10, 2′-amino-6-(2-aminopyrimidin-4-yl)-[2,4′-bipyridin]-5-ol] | > 200 | 3.6 | 203 | 2.6 | 1.2 |  | 260 |  |  |  | 101 | 84 | 60 | 39 | 11 | 13 |  |  |  |  |

The next compounds have a lower IC50 (CDK1/cyclinB) than those just listed; values first:

| IC50 (CDK6/cyclinD3) [nM] | IC50 (CDK1/cyclinB) [nM] | IC50 (CDK4/cyclinD1) [nM] | IC50 (CDK2/cyclinE) [nM] | IC50 (CDK5/p25) [nM] | GI50 (HCT116; 72 hrs) [nM] | GI50 (HCT116; Homo sapiens, HCT-116, 72 h) [nM] | SMILES | Phosphorylation (%) of Tau (Tau protein; 0.0005 uM) [%] | Phosphorylation (%) of Tau (Tau protein; 0.0014 uM) [%] | Phosphorylation (%) of Tau (Tau protein; 0.0041 uM) [%] | Phosphorylation (%) of Tau (Tau protein; 0.012 uM) [%] | Phosphorylation (%) of Tau (Tau protein; 0.037 uM) [%] | Phosphorylation (%) of Tau (Tau protein; 0.11 uM) [%] | Phosphorylation (%) of Tau (Tau protein; 0.33 uM) [%] | Phosphorylation (%) of Tau (Tau protein; 1 uM) [%] | Phosphorylation (%) of Tau (Tau protein; 3 uM) [%] | Phosphorylation (%) of Tau (Tau protein; 0.003 uM) [%] | Phosphorylation (%) of Tau (Tau protein; 0.01 uM) [%] | Phosphorylation (%) of Tau (Tau protein; 0.03 uM) [%] | Phosphorylation (%) of Tau (Tau protein; 0.1 uM) [%] |
| --- | --- | --- | --- | --- | --- | --- | --- | --- | --- | --- | --- | --- | --- | --- | --- | --- | --- | --- | --- | --- |
|  | 0.4 |  | 0.5 | 0.9 | 90 |  | Nc1nccc(-c2ccc(O)c(-c3ccnc(N)n3)n2)n1 [Example 61, 2,6-bis(2-aminopyrimidin-4-yl)pyridin-3-ol 3hydrochloride] |  |  |  |  |  |  |  |  |  |  |  |  |  |
| 29.8 | 0.2 | 125 | 0.3 | 0.3 | 10 |  | Cc1cc(-c2nc(-c3ccnc(N)c3F)ccc2O)nc(N)n1 [Example 71, 2′-amino-6-(2-amino-6-methylpyrimidin-4-yl)-3′-fluoro-[2,4′-bipyridin]-5-ol 3hydrochloride] |  |  |  |  |  |  |  |  |  | 110 | 101 | 35 | 26 |
